Measurements reported in ChEMBL document CHEMBL3885881, “DrugMatrix”.

Organism: Rattus norvegicus
Test: DrugMatrix - Regimen: Daily Repeat
Format: toxicity, organism-based, Sprague-Dawley
Parameters: regimen Daily Repeat, gender Male, age 6-8 weeks
Settings: in vivo, po, 3 mg/kg, route oral GAVAGE, dose level Low, […]; for ABSOLUTE BASOPHIL / ABSOLUTE EOSINOPHIL / ABSOLUTE LYMPHOCYTE / ABSOLUTE MONOCYTE / ABSOLUTE SEGMENTED NEUTROPHIL / BASOPHIL / EOSINOPHIL / ERYTHROCYTE COUNT / HEMATOCRIT / HEMOGLOBIN / LEUKOCYTE COUNT / LYMPHOCYTE / MEAN CORPUSCULAR HEMOGLOBIN / MEAN CORPUSCULAR HEMOGLOBIN CONCENTRATION / MEAN CORPUSCULAR VOLUME / MONOCYTE / NEUTROPHIL / NUCLEATED RED BLOOD CELLS / PLATELET COUNT: tissue Blood; for ALANINE AMINOTRANSFERASE / ALBUMIN / ALKALINE PHOSPHATASE / ASPARTATE AMINOTRANSFERASE / BLOOD UREA NITROGEN / CARBON DIOXIDE / CHLORIDE / CHOLESTEROL / CREATINE PHOSPHOKINASE / CREATININE / GLUCOSE / LACTATE DEHYDROGENASE / LIPASE / POTASSIUM / SODIUM / TOTAL BILIRUBIN / TOTAL PROTEIN / URIC ACID: tissue Plasma

CCc1ccc(CCOc2ccc(CC3SC(=O)NC3=O)cc2)nc1 (centres undefined) [PIOGLITAZONE]
ABSOLUTE BASOPHIL (72 h, time 3 day): 0 CELLS/uL | ABSOLUTE EOSINOPHIL (72 h, time 3 day): 196.67 CELLS/uL | ABSOLUTE LYMPHOCYTE (72 h, time 3 day): 13366 CELLS/uL | ABSOLUTE MONOCYTE (72 h, time 3 day): 155.33 CELLS/uL | ABSOLUTE SEGMENTED NEUTROPHIL (72 h, time 3 day): 1182 CELLS/uL | BASOPHIL (72 h, time 3 day): 0% | EOSINOPHIL (72 h, time 3 day): 1.33% | ERYTHROCYTE COUNT (72 h, time 3 day): 5.51 x10E6/uL | HEMATOCRIT (72 h, time 3 day): 35.97% | HEMOGLOBIN (72 h, time 3 day): 13.93 G/DL | LEUKOCYTE COUNT (72 h, time 3 day): 14.9 x10E3/uL | LYMPHOCYTE (72 h, time 3 day): 89.67% | MEAN CORPUSCULAR HEMOGLOBIN (72 h, time 3 day): 25.3 pg | MEAN CORPUSCULAR HEMOGLOBIN CONCENTRATION (72 h, time 3 day): 38.77 G/DL | MEAN CORPUSCULAR VOLUME (72 h, time 3 day): 65.23 fL | MONOCYTE (72 h, time 3 day): 1% | NEUTROPHIL (72 h, time 3 day): 8% | NUCLEATED RED BLOOD CELLS (72 h, time 3 day): 0 /100WBC | PLATELET COUNT (72 h, time 3 day): 1174 x10E3/uL | ALANINE AMINOTRANSFERASE (72 h, time 3 day): 60.33 u/L | ALBUMIN (72 h, time 3 day): 4.03 G/DL | ALKALINE PHOSPHATASE (72 h, time 3 day): 427.33 u/L | ASPARTATE AMINOTRANSFERASE (72 h, time 3 day): 94.33 u/L | BLOOD UREA NITROGEN (72 h, time 3 day): 8.67 mg/dL | CARBON DIOXIDE (72 h, time 3 day): 32.67 mmol/L | CHLORIDE (72 h, time 3 day): 103.67 MEQ/L | CHOLESTEROL (72 h, time 3 day): 64.67 mg/dL | CREATINE PHOSPHOKINASE (72 h, time 3 day): 625.67 u/L | CREATININE (72 h, time 3 day): 0.22 mg/dL | GLUCOSE (72 h, time 3 day): 155.67 mg/dL | LACTATE DEHYDROGENASE (72 h, time 3 day): 125.67 u/L | LIPASE (72 h, time 3 day): 12.33 u/L | POTASSIUM (72 h, time 3 day): 6.21 MEQ/L | SODIUM (72 h, time 3 day): 145.77 MEQ/L | TOTAL BILIRUBIN (72 h, time 3 day): 0.13 mg/dL | TOTAL PROTEIN (72 h, time 3 day): 5.33 G/DL | URIC ACID (72 h, time 3 day): 1.63 mg/dL | ABSOLUTE BASOPHIL (120 h, time 5 day): 0 CELLS/uL | ABSOLUTE EOSINOPHIL (120 h, time 5 day): 37 CELLS/uL | ABSOLUTE LYMPHOCYTE (120 h, time 5 day): 11883.67 CELLS/uL | ABSOLUTE MONOCYTE (120 h, time 5 day): 95.33 CELLS/uL | ABSOLUTE SEGMENTED NEUTROPHIL (120 h, time 5 day): 1150.67 CELLS/uL | BASOPHIL (120 h, time 5 day): 0% | EOSINOPHIL (120 h, time 5 day): 0.33% | ERYTHROCYTE COUNT (120 h, time 5 day): 5.61 x10E6/uL | HEMATOCRIT (120 h, time 5 day): 36.33% | HEMOGLOBIN (120 h, time 5 day): 14.47 G/DL | LEUKOCYTE COUNT (120 h, time 5 day): 13.17 x10E3/uL | LYMPHOCYTE (120 h, time 5 day): 90.33% | MEAN CORPUSCULAR HEMOGLOBIN (120 h, time 5 day): 25.8 pg | MEAN CORPUSCULAR HEMOGLOBIN CONCENTRATION (120 h, time 5 day): 39.83 G/DL | MEAN CORPUSCULAR VOLUME (120 h, time 5 day): 64.8 fL | MONOCYTE (120 h, time 5 day): 0.67% | NEUTROPHIL (120 h, time 5 day): 8.67% | NUCLEATED RED BLOOD CELLS (120 h, time 5 day): 0 /100WBC | PLATELET COUNT (120 h, time 5 day): 1242.33 x10E3/uL | ALANINE AMINOTRANSFERASE (120 h, time 5 day): 58.33 u/L | ALBUMIN (120 h, time 5 day): 4.03 G/DL | ALKALINE PHOSPHATASE (120 h, time 5 day): 346.67 u/L | ASPARTATE AMINOTRANSFERASE (120 h, time 5 day): 87.67 u/L | BLOOD UREA NITROGEN (120 h, time 5 day): 13 mg/dL | CARBON DIOXIDE (120 h, time 5 day): 30.67 mmol/L | CHLORIDE (120 h, time 5 day): 101 MEQ/L | CHOLESTEROL (120 h, time 5 day): 64.67 mg/dL | CREATINE PHOSPHOKINASE (120 h, time 5 day): 464 u/L | CREATININE (120 h, time 5 day): 0.13 mg/dL | GLUCOSE (120 h, time 5 day): 150.33 mg/dL | LACTATE DEHYDROGENASE (120 h, time 5 day): 542.33 u/L | LIPASE (120 h, time 5 day): 11.33 u/L | POTASSIUM (120 h, time 5 day): 6.64 MEQ/L | SODIUM (120 h, time 5 day): 142.57 MEQ/L | TOTAL BILIRUBIN (120 h, time 5 day): 0.2 mg/dL | TOTAL PROTEIN (120 h, time 5 day): 5.7 G/DL | URIC ACID (120 h, time 5 day): 1.57 mg/dL
